Source: publication PMC12445744, “Molecular docking to homology models of human and Trypanosoma brucei ERK8 that identified ortholog-specific inhibitors” (PLOS Neglected Tropical Diseases, 2025)
Values joined by “and” are separate entries in the source; they are usually repeats but may differ in a detail not shown here. Identical values can stand only once.

Molecular target: T1, TbERK8 (Trypanosoma brucei brucei, UniProt Q38B88)
T1 sequence (Q38B88 1-442): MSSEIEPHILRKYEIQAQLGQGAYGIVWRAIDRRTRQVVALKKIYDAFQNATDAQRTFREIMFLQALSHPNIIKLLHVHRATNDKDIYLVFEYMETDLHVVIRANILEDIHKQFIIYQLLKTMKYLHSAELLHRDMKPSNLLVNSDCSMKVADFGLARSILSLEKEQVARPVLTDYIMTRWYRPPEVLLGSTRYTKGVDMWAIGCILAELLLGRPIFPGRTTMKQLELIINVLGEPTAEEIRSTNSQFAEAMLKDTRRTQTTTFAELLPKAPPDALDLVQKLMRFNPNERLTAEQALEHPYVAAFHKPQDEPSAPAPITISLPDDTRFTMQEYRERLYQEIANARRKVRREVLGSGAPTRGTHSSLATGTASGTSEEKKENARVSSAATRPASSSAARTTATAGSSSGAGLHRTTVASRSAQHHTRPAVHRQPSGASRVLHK
Assay: Luciferase-based kinase inhibition assay (ATP luminescence), GST-tagged TbERK8 with MBP substrate
Assay type: biochemical
Set-up: raw luminescence, TbERK8: unit of the concentration uncertain
Conditions: for raw luminescence, TbERK8: sheet Kinase_glo_080924_IFPS (2), replicate wells, listed as Ida
Procedure: Escherichia coli strain Rosetta 2 (DE3) (Cat# 71397, MilliporeSigma, Burlington, MA) was transformed with the plasmid pGEX2T expressing the full-length hERK8 coding region or pGSTAg expressing the full-length TbERK8 coding region. One liter of Terrific Broth media containing 100 μg/ml Ampicillin and 30 μg/ml chloramphenicol in 2 L baffled flasks was inoculated with 25 mL from an overnight culture of Rosetta 2 strains harboring either the pGEX2T-hERK8 or pGSTAg-TbERK8 plasmid. Two baffled flasks were inoculated with each overnight strain and incubated and shaken at 175 RPM in a New Brunswick Innova 44R Incubator Shaker (Fischer Scientific, Pittsburgh, PA) at 37 °C until the cultures reached an O.D.600 of 0.94. Once the cultures in the flask reached the target O.D.600, the flasks were cooled to 4 °C in an ice water bath. The cooled cultures were induced by adding isopropyl β-D-1-thiogalactopyranoside (IPTG) to a final concentration of 0.1 mM and shaken at 16 °C for 16 hours at 175 RPM in a New Brunswick Innova 44R Incubator Shaker (Fischer Scientific, Pittsburgh, PA). On the next day, the cultures were pelleted by centrifugation at 9000 xg in a JLA 10.500 rotor (Beckman Coulter; Brea, CA), and the media was decanted. The pellet was flash-frozen in liquid nitrogen and then thawed on ice. The thawed pellet was resuspended in lysis buffer (25 mM Tris, 75 mM NaCl, 0.5% TritonX-100 and 0.5% Nonidet P-40, 1 mM phenylmethanesulfonyl fluoride, 1 mM benzamidine⋅HCl) and lysed using a microfluidizer M-110P from Microfluidics (Westwood, MA). The crude lysates were clarified by centrifugation at 140,000 xg in a 45Ti rotor (Beckman Coulter, Brea, CA) for 30 min at 4°C. The clarified lysate was loaded by gravity to a 3 mL glutathione agarose resin column (Cat# G-250–10, GOLDBIO, St. Louis, MO) formed in a 1.5 × 20 cm glass chromatography column (Cat# 7371522, Bio-Rad, Hercules, CA). The column was washed with 30 mL of PBS (pH 7.4) containing 1 mM DTT. Elution buffer (50 mM Tris buffer pH 8.0 containing 10 mM reduced glutathione and 1 mM DTT was added to the washed column), and 1 mL fractions were collected by gravity and examined by SDS-PAGE stained by Coomassie dye. Peak fractions pooled from the elution were dialyzed (4x 1:500 dilutions) in kinase buffer (30 mM Tris, pH 7.4, 10 mM MgCl2, 1 mM DTT, 5% glycerol).
We performed kinase assays in buffer K (30 mM Tris pH 7.4, 10 mM MgCl2, 1 mM DTT, 5% glycerol, 50 μM ATP, and 0.1 mg/mL BSA) at 30°C for 30 min in 30 μL reactions. GST-tagged HsERK8 and TbERK8 were tested using myelin basic protein (MBP) (Cat# 13–110, Millipore, Darmstadt, Germany) as the substrate at increasing concentrations to determine the optimal activity for the assay. ATP consumption was determined by adding equal volumes of the kinase assay reagent (Promega, Cat# V5601, Madison, WI) following the manufacturer’s protocol. Luminescence was measured using the microplate reader (SpectraMax L, Molecular Devices, Sunnyvale, CA).
These compounds were screened for kinase inhibition utilizing a luciferase-based assay. Briefly, the kinases were tested using MBP as the substrate at a 14-fold molar excess in 384-well flat-bottom white plates (BRANDTECH Scientific, Cat# 781681, Essex, CT). These compounds were tested at concentrations ranging from […] to 150 nM. The kinases plus MBP substrate reactions were incubated with each inhibitor for 30 minutes at 30°C. Equal volumes of kinase assay mix Promega (Cat# V5601, Madison, WI) were added to the kinase/inhibitor reaction after 30 minutes, following the manufacturer’s protocol. ATP luminescence was measured using a microplate reader (SpectraMax L, Molecular Devices, Sunnyvale, CA). IC50 values were calculated from assays done in triplicate by fitting the data using Prism 8.1.1 (GraphPad).

CC(=O)[C@]1(O)Cc2c(O)c3c(c(O)c2[C@@H](O[C@H]2C[C@H](N)[C@H](O)[C@H](C)O2)C1)C(=O)c1ccccc1C3=O [Idarubicin]
raw luminescence, TbERK8 (0.00015 (unit uncertain) compound): 2715.27 RLU and 2728.74 RLU and 2394.11 RLU
raw luminescence, TbERK8 (0.00061 (unit uncertain) compound): 1071.28 RLU and 918.564 RLU and 956.744 RLU
raw luminescence, TbERK8 (0.00244 (unit uncertain) compound): 1109.46 RLU and 1118.45 RLU and 925.302 RLU
raw luminescence, TbERK8 (0.00977 (unit uncertain) compound): 992.678 RLU and 972.465 RLU and 952.252 RLU
raw luminescence, TbERK8 (0.03906 (unit uncertain) compound): 1019.63 RLU and 976.957 RLU and 1073.53 RLU
raw luminescence, TbERK8 (0.15625 (unit uncertain) compound): 1318.33 RLU and 1147.64 RLU and 1078.02 RLU
raw luminescence, TbERK8 (0.62500 (unit uncertain) compound): 2223.42 RLU and 1980.86 RLU and 1909 RLU
raw luminescence, TbERK8 (2.50000 (unit uncertain) compound): 2212.19 RLU and 2209.94 RLU and 2311.01 RLU
raw luminescence, TbERK8 (10.00000 (unit uncertain) compound, signal = ATP left): 619.862 RLU and 786.057 RLU and 752.369 RLU
inhibitory effect on kinase activity of TbERK8 (concentrations below 4.0 x10^-5 M (above this the red compound blocked luminescence)): no detectible (n/d) inhibitory effect
